From patent publication US7851472B2, “Triazolophthalazines” (NYCOMED GmbH, priority 2004, dated 2010)
“Also recorded” adds a separate entry of the source. Ends that are not written are not given here.

Experiments:
HUVEC monolayers = test: Inhibition of macromolecule (HRP) permeability of thrombin-stimulated HUVEC monolayers; assay type: cell-based, human; conditions: for IC50: Homo sapiens, 1 h, HUVEC, 1 μM RP73401, 10 μM Motapizone, 1 mM SNP or 100 nM ANP, HRP passage after 60 min, read-out: Inhibition of SNP- or ANP-induced permeability, −log IC50 (converted); for IC50 / Thrombin-induced increase of HRP permeability (hyperpermeability): 1 U/ml thrombin; for Thrombin-induced increase of HRP permeability (hyperpermeability): 10 μM Motapizone (PDE3) together with 1 μM RP73401 (PDE4)
Protocol: The procedure to measure macromolecule permeability of endothelial cell monolayers followed the method described by Langeler & van Hinsbergh (1988) with modifications. Human umbilical vein endothelial cells were isolated from umbilical cords according to standard procedures (Jaffe et al. 1973) and cultured in endothelial cell basal medium (EBM) supplemented with 2% FCS, 0.5 ng/ml VEGF, 10 ng/ml bFGF, 5 ng/ml EGF, 20 ng/ml Long R3 IGF-1, 0.2 μg/ml hydrocortisone, 1 μg/ml ascorbic acid, 22.5 μg/ml heparin, 50 μg/ml gentamicin, 50 ng/ml amphotericin B (EGM2 purchased from Promocell GmbH, Heidelberg, Germany). At confluency, cells were trypsinized and replated at 73000 cells per well on 3 μm polycarbonate filter Transwell inserts (Costar GmbH, Bodenheim, Germany) precoated with 10 μg cm^2 −1 Fibronectin (Sigma, Taufkirchen, Germany). HUVECs were cultured in EGM2 (100 μl in the upper wells and 600 μl in the lower wells) over four days prior the experiments and medium was changed every other day. At the day of the experiment culture medium was replaced by M199 with 1% human serum albumin. Endothelial cells were preincubated with cyclic nucleotide modifiers (the selective PDE3 inhibitor motapizone, the selective PDE4 inhibitor RP73401, the cGMP generators ANP or SNP and PDE2 inhibitors) for 15 min. HUVECs were then stimulated with Thrombin (1 U ml^−1) (Sigma, Taufkichen, Germany) and horsh radish peroxidase (5 μg/ml) (Sigma, Taufkirchen, Germany) as the macromolecule marker protein was added to the upper wells. Following 1 h incubation time Transwells were removed and the activity of horsh radish peroxidase that penetrated the endothelial cell monolayer was measured in the lower wells with the 3,3′, 5,5′-tetramethylbenzidine liquid substrate system from Sigma (Taufkirchen, Germany).
In parallel, compounds according to the invention can inhibit Thrombin-induced permeability of HUVEC monolayers for horsh radish peroxidase (HRP) as a macromolecule marker. […] The concentration-dependent inhibition of HRP permeability at different concentrations was assessed from the percent inhibition in the presence and absence of the PDE2 inhibitors and in the presence of 1 μM RP73401, 10 μM Motapizone and 100 nM ANP.
HUVEC cells on 3 μm polycarbonate filters (Transwells) were preincubated with 1 μM RP73401 (to block PDE4) and 10 μM Motapizone (to block PDE3), 1 mM SNP or 100 nM ANP and 1 μM of test sample over 15 min and then stimulated with 1 U/ml thrombin. HRP passage into the lower wells was assessed after 60 min.

Compound: COc1ccc(-c2nnc3c4ccccc4c(Nc4ccc(N)cc4)nn23)cc1 [Compound 1, N-[3-(4-Methoxyphenyl)-[1,2,4]triazolo[3,4-a]phthalazin-6-yl]-benzene-1,4-diamine]
- melting point: 295 °C

Compound: COCC(=O)Nc1ccc(Nc2nn3c(-c4ccc(OC)cc4)nnc3c3ccccc23)cc1 [Compound 4, 2-Methoxy-N-{4-[3-(4-methoxy-phenyl)-[1,2,4]triazolo[3,4-a]phthalazin-6-ylamino]-phenyl}-acetamide]
- IC50 (HUVEC monolayers): 2 to 63.1 nM

Compound: COCCC(=O)Nc1ccc(Nc2nn3c(-c4ccc(OC)cc4)nnc3c3ccccc23)cc1 [Compound 5, 3-Methoxy-N-{4-[3-(4-methoxy-phenyl)-[1,2,4]triazolo[3,4-a]phthalazin-6-ylamino]-phenyl}-propionamide]
- IC50 (HUVEC monolayers): 2 to 63.1 nM

Compound: COc1ccc(-c2nnc3c4ccccc4c(Nc4ccc(NC(=O)c5c[nH]cn5)cc4)nn23)cc1 [Compound 11, 1H-Imidazole-4-carboxylic acid {4-[3-(4-methoxy-phenyl)-[1,2,4]triazolo[3,4-a]phthalazin-6-ylamino]-phenyl}-amide]
- IC50 (HUVEC monolayers): 2 to 63.1 nM

Compound: COc1ccc(-c2nnc3c4ccccc4c(Nc4ccc(NC(=O)C5CCCCN5)cc4)nn23)cc1 (centres unmarked) [Compound 12, Piperidine-2-carboxylic acid {4-[3-(4-methoxy-phenyl)-[1,2,4]triazolo[3,4-a]phthalazin-6-ylamino]-phenyl}-amide]
- IC50 (HUVEC monolayers): 2 to 63.1 nM

Compound: COc1ccc(-c2nnc3c4ccccc4c(Nc4ccc(NC(=O)C(F)(F)F)cc4)nn23)cc1 [Compound 17, 2,2,2-Trifluoro-N-{4-[3-(4-methoxy-phenyl)-[1,2,4]triazolo[3,4-a]phthalazin-6-ylamino]-phenyl}-acetamide]
- IC50 (HUVEC monolayers): 2 to 63.1 nM

Compound: COc1ccc(-c2nnc3c4ccccc4c(Nc4ccc(NC(=O)C5CC5)cc4)nn23)cc1 [Compound 18, Cyclopropanecarboxylic acid {4-[3-(4-methoxy-phenyl)-[1,2,4]triazolo[3,4-a]phthalazin-6-ylamino]-phenyl}-amide]
- IC50 (HUVEC monolayers): 2 to 63.1 nM

Compound: COc1ccc(-c2nnc3c4ccccc4c(Nc4ccc(NC(=O)c5ccoc5)cc4)nn23)cc1 [Compound 21, Furan-3-carboxylic acid {4-[3-(4-methoxy-phenyl)-[1,2,4]triazolo[3,4-a]phthalazin-6-ylamino]-phenyl}-amide]
- IC50 (HUVEC monolayers): 2 to 63.1 nM

Compound: COc1ccc(-c2nnc3c4ccccc4c(Nc4ccc(NC(=O)CN5CCOCC5)cc4)nn23)cc1 [Compound 25, N-{4-[3-(4-Methoxy-phenyl)-[1,2,4]triazolo[3,4-a]phthalazin-6-ylamino]-phenyl}-2-morpholin-4-yl-acetamide]
- IC50 (HUVEC monolayers): 2 to 63.1 nM

Compound: O=C(Nc1ccc(Nc2nn3c(-c4ccccc4Br)nnc3c3ccccc23)cc1)C1CCCCN1 (centres unmarked) [Compound 30, Piperidine-2-carboxylic acid {4-[3-(2-bromo-phenyl)-[1,2,4]triazolo[3,4-a]phthalazin-6-ylamino]-phenyl}-amide]
- IC50 (HUVEC monolayers): 2 to 63.1 nM

Compound: COc1ccc(-c2nnc3c4ccccc4c(Nc4ccc(NC(=O)c5ccccc5)cc4)nn23)cc1 [Compound 33, N-{4-[3-(4-Methoxyphenyl)-[1,2,4]triazolo[3,4-a]phthalazin-6-ylamino]-phenyl}-benzamide]
- melting point: 323 °C

Compound: COc1ccc(-c2nnc3c4ccccc4c(Nc4cccc(NC(=O)C5CC5)c4)nn23)cc1 [Compound 38, Cyclopropanecarboxylic acid {3-[3-(4-methoxy-phenyl)-[1,2,4]triazolo[3,4-a]phthalazin-6-ylamino]-phenyl}-amide]
- IC50 (HUVEC monolayers): 2 to 63.1 nM

Compound: COc1ccc(-c2nnc3c4ccccc4c(Nc4cccc(NC(=O)C5CCN(C(C)=O)CC5)c4)nn23)cc1 [Compound 54, 1-Acetyl-piperidine-4-carboxylic acid {3-[3-(4-methoxy-phenyl)-[1,2,4]triazolo[3,4-a]phthalazin-6-ylamino]-phenyl}-amide]
- IC50 (HUVEC monolayers): 2 to 63.1 nM

Compound: COc1ccc(-c2nnc3c4ccccc4c(Nc4cccc(NC(C)=O)c4)nn23)cc1 [Compound 66, N-{3-[3-(4-Methoxyphenyl)-[1,2,4]triazolo[3,4-a]phthalazin-6-ylamino]-phenyl}-acetamide]
- melting point: 295 °C

Compound: CNC(=O)c1ccc(Nc2nn3c(-c4ccc(OC)cc4)nnc3c3ccccc23)cc1 [Compound 85, 4-[3-(4-Methoxy-phenyl)-[1,2,4]triazolo[3,4-a]phthalazin-6-ylamino]-N-methyl-benzamide]
- IC50 (HUVEC monolayers): 2 to 63.1 nM

Compound: COc1ccc(-c2nnc3c4ccccc4c(Nc4cccc(C(N)=O)c4)nn23)cc1 [Compound 109, 3-[3-(4-Methoxyphenyl)-[1,2,4]triazolo[3,4-a]phthalazin-6-ylamino]-benzamide]
- melting point: 296 °C

Compound: CNC(=O)c1cccc(Nc2nn3c(-c4ccc(OC)cc4)nnc3c3ccccc23)c1 [Compound 110, 3-[3-(4-Methoxyphenyl)-[1,2,4]triazolo[3,4-a]phthalazin-6-ylamino]-N-methylbenzamide]
- melting point: 316 °C

Compound: CC1CC(=O)NN=C1c1cc(-n2ccnc2)cs1 (centres unmarked) [Motapizone, reference compound]
- Thrombin-induced increase of HRP permeability (hyperpermeability) (HUVEC monolayers): completely abolished; also recorded: completely blocked

Compound: COc1ccc(C(=O)Nc2c(Cl)cncc2Cl)cc1OC1CCCC1 [RP73401, reference compound]
- Thrombin-induced increase of HRP permeability (hyperpermeability) (HUVEC monolayers): completely abolished; also recorded: completely blocked

Compound: ANP: cGMP generator used to augment cGMP and activate PDE2 (SLRRSSCFGGRMDRIGAQSGLGCNSFRY; ends and bridges not checked; cysteine pairing not given here; UniProt P01160 124-151, looked up) [reference compound]
- Effect on the inhibition of permeability by PDE3 and 4 inhibition (HUVEC monolayers; ANP (100 nM) or SNP (1 mM) in additional presence of 10 μM Motapizone and 1 μM RP73401): partially reversed
